Legend:
Escherichia coli = assay: Antimicrobial activity against Escherichia coli ATCC 25922 by broth microdilution method; assay type: functional
Pseudomonas aeruginosa = assay: Antimicrobial activity against Pseudomonas aeruginosa ATCC 27853 by broth microdilution method; assay type: functional
Staphylococcus aureus [1] = assay: Antimicrobial activity against Staphylococcus aureus ATCC 25923 by broth microdilution method; assay type: functional
Staphylococcus aureus [2] = assay: Antimicrobial activity against Staphylococcus aureus ATCC 29213 by broth microdilution method; assay type: functional
Enterococcus faecalis = assay: Antimicrobial activity against Enterococcus faecalis ATCC 29212 by broth microdilution method; assay type: functional
MRC5 [3] = assay: Cytotoxicity against human MRC5 cells after 24 hrs by MTT assay; assay type: cell-based; conditions: MRC5, 24 h
MRC5 [4] = assay: Cytotoxicity against human MRC5 cells after 48 hrs by MTT assay; assay type: cell-based; conditions: MRC5, 48 h
[5] = Selectivity index, ratio of IC50 for human MRC5 cells after 24 hrs to MIC for Escherichia coli ATCC 25922; assay type: toxicity, cell-based; conditions: read-out: Selectivity Index
[6] = Selectivity index, ratio of IC50 for human MRC5 cells after 24 hrs to MIC for Pseudomonas aeruginosa ATCC 27853; assay type: toxicity, cell-based; conditions: read-out: Selectivity Index
[7] = Selectivity index, ratio of IC50 for human MRC5 cells after 24 hrs to MIC for Staphylococcus aureus ATCC 25923; assay type: toxicity, cell-based; conditions: read-out: Selectivity Index
[8] = Selectivity index, ratio of IC50 for human MRC5 cells after 24 hrs to MIC for Staphylococcus aureus ATCC 29213; assay type: toxicity, cell-based; conditions: read-out: Selectivity Index
[9] = Selectivity index, ratio of IC50 for human MRC5 cells after 24 hrs to MIC for Enterococcus faecalis ATCC 29212; assay type: toxicity, cell-based; conditions: read-out: Selectivity Index

SMILES	MIC (Escherichia coli)	MIC (Pseudomonas aeruginosa)	MIC (Staphylococcus aureus [1])	MIC (Staphylococcus aureus [2])	MIC (Enterococcus faecalis)	IC50 (MRC5 [3])	IC50 (MRC5 [4])	selectivity ratio at 24 h [5]	selectivity ratio at 24 h [6]	selectivity ratio at 24 h [7]	selectivity ratio at 24 h [8]	selectivity ratio at 24 h [9]
N=C(N)NCCc1ccc(OCc2c(COc3ccc(CCNC(=N)N)cc3)c(COc3ccc(CCNC(=N)N)cc3)c(COc3ccc(CCNC(=N)N)cc3)c(COc3ccc(CCNC(=N)N)cc3)c2COc2ccc(CCNC(=N)N)cc2)cc1.O=C(O)C(F)(F)F	16 µg/mL	16 µg/mL	8 µg/mL	8 µg/mL	8 µg/mL	26 µg/mL	30 µg/mL	1.5	1.5	3	3	3
N=C(N)NCCc1ccc(OCc2ccc(COc3ccc(CCNC(=N)N)cc3)cc2)cc1.O=C(O)C(F)(F)F	4 µg/mL	4 µg/mL	1 µg/mL	1 µg/mL	2 µg/mL	21 µg/mL	12.7 µg/mL	5.25	5.25	21	21	10.5
N=C(N)NCCc1ccc(OCc2cc(COc3ccc(CCNC(=N)N)cc3)c(COc3ccc(CCNC(=N)N)cc3)cc2COc2ccc(CCNC(=N)N)cc2)cc1.O=C(O)C(F)(F)F	4 µg/mL	8 µg/mL	2 µg/mL	< 1 µg/mL	4 µg/mL	49 µg/mL	38.5 µg/mL	12	6	24.5	> 49	12.2
N=C(N)NCCc1ccc(OCc2cccc(COc3ccc(CCNC(=N)N)cc3)c2)cc1.O=C(O)C(F)(F)F	16 µg/mL	32 µg/mL	< 1 µg/mL	2 µg/mL	16 µg/mL	34.5 µg/mL	29.7 µg/mL	2	1	> 34.5	17	2
N=C(N)NCCc1ccc(OCc2ccccc2)cc1.O=C(O)C(F)(F)F	32 µg/mL	64 µg/mL	16 µg/mL	8 µg/mL	128 µg/mL	26 µg/mL	19 µg/mL	0.8	0.4	1.5	3	0.2
N=C(N)NCCc1ccc(OCc2cc(COc3ccc(CCNC(=N)N)cc3)cc(COc3ccc(CCNC(=N)N)cc3)c2)cc1.O=C(O)C(F)(F)F	< 1 µg/mL	16 µg/mL	< 1 µg/mL	< 1 µg/mL	8 µg/mL	39.5 µg/mL	30 µg/mL	> 39.5	2.5	> 39.5	> 39.5	5
N=C(N)NCCc1ccc(OCc2ccccc2COc2ccc(CCNC(=N)N)cc2)cc1.O=C(O)C(F)(F)F	8 µg/mL	16 µg/mL	< 1 µg/mL	< 1 µg/mL	8 µg/mL	100 µg/mL	41 µg/mL	12.5	6.2	> 100	> 100	12.5
